Assay results reported in patent US6355799B1, “Substituted benzene compounds, process for their preparation, and herbicidal and defoliant compositions containing them” (ISK Americas Incorporated, priority 1997, dated 2002).

Assays:
Format in all cases: in vivo
[1] = system: redroot pigweed (Amaranthus retroflexus, AMARE); assay: Pre-emerge test, greenhouse herbicide activity screening; conditions: for Pre-emerge Herbicidal Activity AMARE: phytotoxicity rating 0-100, 14 days after application; for phytotoxicity rating AMARE: pre-emerge, 14 days after application, scale 0-100
Method in brief: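 Visual ratings on a 0-100 scale (0 no damage, 100 all plants dead) were taken at 14 days after treatment. Rates of 15-1000 g ai/ha in acetone, 187 l/ha, were sprayed onto soil one day after planting (pre-emerge) or onto 2-3 leaf plants with 0.25% v/v surfactant (post-emerge).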

[2] = system: upland rice (Oryza sp., var. Tebonnet, RICE); assay: Post-emerge test, crop safety; conditions: post-emerge, 14 days after application, rating scale 0-100
Method in brief: (§1)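 Fourteen days after spraying, crop and weed injury was graded visually from 0, no effect, to 100, every plant dead. Test substances were dissolved in acetone and applied at 15–1000 g ai/ha with a flat-fan nozzle. Application was either pre-emergence, one day after sowing, or post-emergence at the 2–3 leaf stage.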

[3] = system: field corn (Zea mays L., var. Dekalb 535, CORN); assay: Post-emerge test, crop safety; conditions: post-emerge, 14 days after application, rating scale 0-100
Method in brief: as §1

[4] = system: ivyleaf morningglory (Ipomoea hederacea, IPOHE); assay: Post-emerge test, greenhouse herbicide activity screening; conditions: post-emerge, 14 days after application, rating scale 0-100
Method in brief: (§2)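 Compounds in acetone were track-sprayed at 15–1000 g ai/ha: pre-emergence onto soil sown the previous day, then top-watered to incorporate and later bottom-watered; post-emergence onto 2–3 leaf plants with 0.25% v/v surfactant, bottom-watered only. Ratings on a 0–100 phytotoxicity scale were taken at day 14.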

[5] = system: barnyardgrass (Echinochloa crus-galli, ECHCG); assay: as above; conditions: post-emerge, 14 days after application, rating scale 0-100
Method in brief: as §2

[6] = system: large crabgrass (Digitaria sanguinalis, DIGSA); assay: as above; conditions: post-emerge, 14 days after application, rating scale 0-100
Method in brief: as §2

[7] = system: redroot pigweed (Amaranthus retroflexus, AMARE); assay: as above; conditions: post-emerge, 14 days after application
Method in brief: as §2

[8] = system: johnsongrass (Sorghum halepense, SORHA); assay: as above; conditions: post-emerge, 14 days after application, rating scale 0-100
Method in brief: as §2

[9] = system: green foxtail (Setaria viridis, SETVI); assay: as above; conditions: post-emerge, 14 days after application, rating scale 0-100
Method in brief: as §2

[10] = system: sicklepod (Cassia obtusifolia, CASOB); assay: as above; conditions: post-emerge, 14 days after application, rating scale 0-100
Method in brief: as §2

[11] = system: lambsquarters (Chenopodium album, CHEAL); assay: as above; conditions: post-emerge, 14 days after application, rating scale 0-100
Method in brief: as §2

[12] = system: velvetleaf (Abutilon theophrasti, ABUTH); assay: as above; conditions: post-emerge, 14 days after application, rating scale 0-100
Method in brief: as §2

[13] = system: ivyleaf morningglory (Ipomoea hederacea, IPOHE); assay: Pre-emerge test, greenhouse herbicide activity screening; conditions: for Pre-emerge Herbicidal Activity IPOHE: phytotoxicity rating 0-100, 14 days after application; for phytotoxicity rating IPOHE: pre-emerge, 14 days after application, scale 0-100
Method in brief: as §1

[14] = system: barnyardgrass (Echinochloa crus-galli, ECHCG); assay: as above; conditions: for Pre-emerge Herbicidal Activity ECHCG: phytotoxicity rating 0-100, 14 days after application; for phytotoxicity rating ECHCG: pre-emerge, 14 days after application, scale 0-100
Method in brief: as §1

[15] = system: large crabgrass (Digitaria sanguinalis, DIGSA); assay: as above; conditions: for Pre-emerge Herbicidal Activity DIGSA: phytotoxicity rating 0-100, 14 days after application; for phytotoxicity rating DIGSA: pre-emerge, 14 days after application, scale 0-100
Method in brief: as §1

[16] = system: johnsongrass (Sorghum halepense, SORHA); assay: as above; conditions: for Pre-emerge Herbicidal Activity SORHA: phytotoxicity rating 0-100, 14 days after application; for phytotoxicity rating SORHA: pre-emerge, 14 days after application, scale 0-100
Method in brief: as §1

[17] = system: green foxtail (Setaria viridis, SETVI); assay: as above; conditions: for Pre-emerge Herbicidal Activity SETVI: phytotoxicity rating 0-100, 14 days after application; for phytotoxicity rating SETVI: pre-emerge, 14 days after application, scale 0-100
Method in brief: as §1

[18] = system: sicklepod (Cassia obtusifolia, CASOB); assay: as above; conditions: for Pre-emerge Herbicidal Activity CASOB: phytotoxicity rating 0-100, 14 days after application; for phytotoxicity rating CASOB: pre-emerge, 14 days after application, scale 0-100
Method in brief: as §1

[19] = system: lambsquarters (Chenopodium album, CHEAL); assay: as above; conditions: for Pre-emerge Herbicidal Activity CHEAL: phytotoxicity rating 0-100, 14 days after application; for phytotoxicity rating CHEAL: pre-emerge, 14 days after application, scale 0-100
Method in brief: as §1

[20] = system: velvetleaf (Abutilon theophrasti, ABUTH); assay: as above; conditions: for Pre-emerge Herbicidal Activity ABUTH: phytotoxicity rating 0-100, 14 days after application; for phytotoxicity rating ABUTH: pre-emerge, 14 days after application, scale 0-100
Method in brief: as §1

[21] = system: upland rice (Oryza sp., var. Tebonnet, RICE); assay: Pre-emerge test, crop safety; conditions: for Pre-emerge Herbicidal Activity RICE: crop damage rating 0-100, 14 days after application; for phytotoxicity rating RICE (crop damage): pre-emerge, 14 days after application, scale 0-100
Method in brief: (§3)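 Plants grown in 10 cm pots of sandy loam mix received acetone-dissolved compounds through a moving flat-fan nozzle. Doses ranged from 15 to 1000 g ai/ha. Pre-emerge pots were seeded one day earlier, post-emerge pots 8–21 days earlier. Fourteen days on, each pot was graded 0–100 for damage.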

[22] = system: field corn (Zea mays L., var. Dekalb 535, CORN); assay: Pre-emerge test, crop safety; conditions: for Pre-emerge Herbicidal Activity CORN: crop damage rating 0-100, 14 days after application; for phytotoxicity rating CORN (crop damage): pre-emerge, 14 days after application, scale 0-100
Method in brief: as §3

[23] = 250 g ai/ha, rating scale 0-100

Compound: CCc1ccc(COC(=O)Nc2c(OC)c(Cl)cc(F)c2-n2c(=O)cc(C(F)(F)F)n(C)c2=O)cc1 [4-31]
- Pre-emerge Herbicidal Activity AMARE ([1]; 63 g ai/ha): 100
- Pre-emerge Herbicidal Activity AMARE ([1]; 250 g ai/ha): 100
- phytotoxicity rating RICE (crop damage) ([2]; 63 g ai/ha): 20
- phytotoxicity rating RICE (crop damage) ([2]; 250 g ai/ha): 40
- phytotoxicity rating CORN (crop damage) ([3]; 63 g ai/ha): 10
- phytotoxicity rating CORN (crop damage) ([3]; 250 g ai/ha): 25
- phytotoxicity rating IPOHE ([4]; 63 g ai/ha): 100
- phytotoxicity rating IPOHE ([4]; 250 g ai/ha): 100
- phytotoxicity rating ECHCG ([5]; 63 g ai/ha): 10
- phytotoxicity rating ECHCG ([5]; 250 g ai/ha): 10
- phytotoxicity rating DIGSA ([6]; 63 g ai/ha): 0
- phytotoxicity rating DIGSA ([6]; 250 g ai/ha): 10
- phytotoxicity rating AMARE ([7]; 63 g ai/ha, rating scale 0-100 (0 no damage, 100 complete death)): 100
- phytotoxicity rating AMARE [7, 23]: 100
- phytotoxicity rating SORHA ([8]; 63 g ai/ha): 0
- phytotoxicity rating SORHA ([8]; 250 g ai/ha): 10
- phytotoxicity rating SETVI ([9]; 63 g ai/ha): 20
- phytotoxicity rating SETVI ([9]; 250 g ai/ha): 40
- phytotoxicity rating CASOB ([10]; 63 g ai/ha): 10
- phytotoxicity rating CASOB ([10]; 250 g ai/ha): 30
- phytotoxicity rating CHEAL ([11]; 63 g ai/ha): 100
- phytotoxicity rating CHEAL ([11]; 250 g ai/ha): 100
- phytotoxicity rating ABUTH ([12]; 63 g ai/ha): 100
- phytotoxicity rating ABUTH ([12]; 250 g ai/ha): 100
- Pre-emerge Herbicidal Activity IPOHE ([13]; 63 g ai/ha): 0
- Pre-emerge Herbicidal Activity IPOHE ([13]; 250 g ai/ha): 40
- Pre-emerge Herbicidal Activity ECHCG ([14]; 63 g ai/ha): 10
- Pre-emerge Herbicidal Activity ECHCG ([14]; 250 g ai/ha): 30
- Pre-emerge Herbicidal Activity DIGSA ([15]; 63 g ai/ha): 50
- Pre-emerge Herbicidal Activity DIGSA ([15]; 250 g ai/ha): 100
- Pre-emerge Herbicidal Activity SORHA ([16]; 63 g ai/ha): 10
- Pre-emerge Herbicidal Activity SORHA ([16]; 250 g ai/ha): 20
- Pre-emerge Herbicidal Activity SETVI ([17]; 63 g ai/ha): 90
- Pre-emerge Herbicidal Activity SETVI ([17]; 250 g ai/ha): 100
- Pre-emerge Herbicidal Activity CASOB ([18]; 63 g ai/ha): 0
- Pre-emerge Herbicidal Activity CASOB ([18]; 250 g ai/ha): 10
- Pre-emerge Herbicidal Activity CHEAL ([19]; 63 g ai/ha): 90
- Pre-emerge Herbicidal Activity CHEAL ([19]; 250 g ai/ha): 100
- Pre-emerge Herbicidal Activity ABUTH ([20]; 63 g ai/ha): 30
- Pre-emerge Herbicidal Activity ABUTH ([20]; 250 g ai/ha): 100
- Pre-emerge Herbicidal Activity RICE ([21]; 63 g ai/ha): 10
- Pre-emerge Herbicidal Activity RICE ([21]; 250 g ai/ha): 30
- Pre-emerge Herbicidal Activity CORN ([22]; 63 g ai/ha): 0
- Pre-emerge Herbicidal Activity CORN ([22]; 250 g ai/ha): 10

Compound: COc1c(Br)cc(F)c(-n2c(=O)cc(C(F)(F)F)n(C)c2=O)c1N(C(=O)C=Cc1ccccc1)C(=O)C=Cc1ccccc1 [2-176]
- phytotoxicity rating AMARE ([1]; 63 g ai/ha): 50
- phytotoxicity rating AMARE ([1]; 250 g ai/ha): 90
- RICE phytotoxicity rating (crop damage) ([2]; 63 g ai/ha): 10
- RICE phytotoxicity rating (crop damage) ([2]; 250 g ai/ha): 30
- CORN phytotoxicity rating (crop damage) ([3]; 63 g ai/ha): 0
- CORN phytotoxicity rating (crop damage) ([3]; 250 g ai/ha): 5
- IPOHE phytotoxicity rating ([4]; 63 g ai/ha): 70
- IPOHE phytotoxicity rating ([4]; 250 g ai/ha): 95
- ECHCG phytotoxicity rating ([5]; 63 g ai/ha): 0
- ECHCG phytotoxicity rating ([5]; 250 g ai/ha): 0
- DIGSA phytotoxicity rating ([6]; 63 g ai/ha): 0
- DIGSA phytotoxicity rating ([6]; 250 g ai/ha): 0
- AMARE phytotoxicity rating ([7]; 63 g ai/ha, rating scale 0-100): 100
- AMARE phytotoxicity rating [7, 23]: 100
- SORHA phytotoxicity rating ([8]; 63 g ai/ha): 0
- SORHA phytotoxicity rating ([8]; 250 g ai/ha): 0
- SETVI phytotoxicity rating ([9]; 63 g ai/ha): 0
- SETVI phytotoxicity rating ([9]; 250 g ai/ha): 0
- CASOB phytotoxicity rating ([10]; 63 g ai/ha): 10
- CASOB phytotoxicity rating ([10]; 250 g ai/ha): 30
- CHEAL phytotoxicity rating ([11]; 63 g ai/ha): 80
- CHEAL phytotoxicity rating ([11]; 250 g ai/ha): 90
- ABUTH phytotoxicity rating ([12]; 63 g ai/ha): 50
- ABUTH phytotoxicity rating ([12]; 250 g ai/ha): 90
- phytotoxicity rating IPOHE ([13]; 63 g ai/ha): 0
- phytotoxicity rating IPOHE ([13]; 250 g ai/ha): 40
- phytotoxicity rating ECHCG ([14]; 63 g ai/ha): 0
- phytotoxicity rating ECHCG ([14]; 250 g ai/ha): 0
- phytotoxicity rating DIGSA ([15]; 63 g ai/ha): 0
- phytotoxicity rating DIGSA ([15]; 250 g ai/ha): 20
- phytotoxicity rating SORHA ([16]; 63 g ai/ha): 0
- phytotoxicity rating SORHA ([16]; 250 g ai/ha): 0
- phytotoxicity rating SETVI ([17]; 63 g ai/ha): 0
- phytotoxicity rating SETVI ([17]; 250 g ai/ha): 20
- phytotoxicity rating CASOB ([18]; 63 g ai/ha): 0
- phytotoxicity rating CASOB ([18]; 250 g ai/ha): 0
- phytotoxicity rating CHEAL ([19]; 63 g ai/ha): 90
- phytotoxicity rating CHEAL ([19]; 250 g ai/ha): 100
- phytotoxicity rating ABUTH ([20]; 63 g ai/ha): 0
- phytotoxicity rating ABUTH ([20]; 250 g ai/ha): 70
- phytotoxicity rating RICE (crop damage) ([21]; 63 g ai/ha): 0
- phytotoxicity rating RICE (crop damage) ([21]; 250 g ai/ha): 0
- phytotoxicity rating CORN (crop damage) ([22]; 63 g ai/ha): 0
- phytotoxicity rating CORN (crop damage) ([22]; 250 g ai/ha): 0
